Patent US20070259329A1, “Anergy-inducing cellular composition” (BioVerde. Inc., priority 2006, published 2007)
Marks after values point to notes of the source that are not given here.

What was measured:
[1] = molecular target: T1, CD28 (Mus musculus, UniProt P31041); assay: Lymphocyte marker analysis by flow cytometry, CD28 epitope; assay type: cell-based, murine (C57BI/6 splenocytes); conditions: for percent expression of cell surface molecule CD28: epitope-specific antibody, average of triplicate; for average percent suppression in epitope detection, CD28: relative to untreated control (0 ppm)
T1 construct: endogenous in cells; host or cells: murine splenocytes (C57Bl/6)
T1 sequence (P31041 20-218): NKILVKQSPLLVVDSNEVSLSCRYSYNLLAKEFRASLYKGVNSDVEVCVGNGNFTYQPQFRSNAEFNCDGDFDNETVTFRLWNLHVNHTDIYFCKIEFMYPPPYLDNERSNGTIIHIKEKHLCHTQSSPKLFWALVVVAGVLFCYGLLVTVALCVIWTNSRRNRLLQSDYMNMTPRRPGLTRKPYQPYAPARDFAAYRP
Procedure: (§1) To evaluate the action of EGCG in rendering cells to become anergy-inducing, murine splenocytes were used as a model system. Splenocytes were collected from BALB/c (H2 K^b) and C57BI/6 (H2 K^d) female mice of 8 to 13 weeks of age in HBSS (BioWhittaker) with 1% FCS. Cells were washed with HBSS (1% FCS) and treated with the media solution which contains RPMI 1640 (Sigma-Aldrich), 10 mM HEPES (Dojindo), and various concentrations of EGCG (98% purity, Roche) described in the examples.
(§2) Flow cytometric analyses of surface epitopes for the control and EGCG-treated splenocytes were performed using a series of fluorescence-labeled monoclonal anti-mouse CD and MHC and corresponding isotype control antibodies (eBioscience: CD2, CD36, CD4, CD11a, CD25, CD 28, CD 49d and CD80; Pharmingen: TCRαβ and MHC II). Murine splenocytes (C57BI/6) were treated with red blood cell lysis buffer (eBioscience) for 5 min prior to EGCG treatments. Immediately following EGCG-treatments, the splenocytes were washed with RPMI 1640 (10% FCS) and a staining buffer (eBioscience) at 4 degree C. Each splenocyte sample was reconstituted as a 50 μl aliquot in the same staining buffer and subject to antibody labeling. After washing twice the samples with the staining buffer, a minimum of 10,000 events per sample was collected on a Becton Dickinson FACScan flow cytometer.

[2] = tested on: INF-γ production; assay: Cytokine ELISA of one-way MLR supernatants, INF-γ; assay type: cell-based, murine; conditions: versus untreated, FIG. 8
Procedure: In a one-way MLR (FIG. 3), a stimulator splenocyte population (BALB/c) was treated with 30 ppm mitomycin C (MP Biomedicals) in RPMI 1640 (10% FCS) at 37 degree C. for 30 min. to arrest its proliferation before EGCG treatments. The splenocytes were then resuspended with the media solution (RPMI 1640 and 10 mM HEPES) containing 0, 100, and 200 ppm EGCG and incubated at 4-8 degree C. for 1 hour and twice washed with RPMI 1640 (10% FCS) before used for MLR experiments. In a two-way MLR (FIG. 4), both stimulator and responder populations were left capable of proliferating. Each cell population was resuspended in RPMI 1640 (10% FCS) and antibiotics: (penicillin 100 U/ml and streptomycin 100 ppm, BioWhittaker) to a final concentration of 5.0×10^6 cells/ml. The stimulator and responder cells were mixed with a 1:1 ratio (120 μl each) and incubated in triplicate in 96-well plates for 72 hours at […] and 5% CO2. Cell proliferation was estimated by counting with trypan-blue exclusion a small sample of the cells from each MLR well.
Supernatants from the one-way MLR wells (Example II) were assayed for IL-2 and INF-γ production using cytokine quantification ELISA (e-Bioscience).

[3] = molecular target: T2, CD11a (Mus musculus, UniProt P24063); assay: Lymphocyte marker analysis by flow cytometry, CD11a epitope; assay type: cell-based, murine (C57BI/6 splenocytes); conditions: for percent expression of cell surface molecule CD11a: epitope-specific antibody, average of triplicate; for average percent suppression in epitope detection, CD11a: relative to untreated control (0 ppm)
T2 construct: endogenous in cells; host or cells: murine splenocytes (C57Bl/6)
Procedure: as §1, §2

[4] = molecular target: T3, CD3ε (Mus musculus, UniProt P22646); assay: Lymphocyte marker analysis by flow cytometry, CD3ε epitope; assay type: cell-based, murine (C57BI/6 splenocytes); conditions: for percent expression of cell surface molecule CD3ε: epitope-specific antibody, average of triplicate; for average percent suppression in epitope detection, CD3ε: relative to untreated control (0 ppm)
T3 construct: endogenous in cells; host or cells: murine splenocytes (C57Bl/6)
Procedure: as §1, §2

[5] = molecular target: T4, CD2 (Mus musculus, UniProt P08920); assay: Lymphocyte marker analysis by flow cytometry, CD2 epitope; assay type: cell-based, murine (C57BI/6 splenocytes); conditions: for percent expression of cell surface molecule CD2: epitope-specific antibody, average of triplicate; for average percent suppression in epitope detection, CD2: relative to untreated control (0 ppm)
T4 construct: endogenous in cells; host or cells: murine splenocytes (C57Bl/6)
T4 sequence (P08920 23-344): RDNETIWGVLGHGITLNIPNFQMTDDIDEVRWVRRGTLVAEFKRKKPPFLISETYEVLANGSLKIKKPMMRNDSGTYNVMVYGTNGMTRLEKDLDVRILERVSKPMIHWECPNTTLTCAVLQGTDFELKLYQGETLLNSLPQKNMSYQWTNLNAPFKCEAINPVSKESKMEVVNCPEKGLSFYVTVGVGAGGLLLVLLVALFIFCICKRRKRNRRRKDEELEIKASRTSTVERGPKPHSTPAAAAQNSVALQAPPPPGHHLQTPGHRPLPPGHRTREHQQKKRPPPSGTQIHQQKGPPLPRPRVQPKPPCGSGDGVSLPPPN
Procedure: as §1, §2

[6] = tested on: Murine splenocytes (C57BI/6); assay: Survival of murine splenocytes in the media solution containing EGCG (trypan-blue exclusion); assay type: cell-based; conditions: media with 0, 200, 1000 ppm EGCG, FIGS. 1 and 2
Procedure: Murine splenocytes (C57BI/6) were suspended in the media solution containing 0, 200, and 1000 ppm EGCG with the cell concentration of 10^6/ml, and 5 ml of this cell suspension was placed in six-well incubation plates and incubated at 4 or 37 degree C. for either 1 hr or 24 hours. Surviving cells were counted by trypan-blue exclusion method and direct observation under a high magnification (800×) by a compound light microscope (Nikon Eclipse TE300). […] (FIGS. 1 and 2). Presented data are the average of three replicates for each treatment.

[7] = tested on: TCRαβ; assay: Lymphocyte marker analysis by flow cytometry, TCRαβ epitope; assay type: cell-based, murine (C57BI/6 splenocytes); conditions: for percent expression of cell surface molecule TCRαβ: epitope-specific antibody, average of triplicate; for average percent suppression in epitope detection, TCRαβ: relative to untreated control (0 ppm)
Procedure: as §1, §2

[8] = EGCG treatment, summary of TABLE 1

T3 sequence (P22646 22-189): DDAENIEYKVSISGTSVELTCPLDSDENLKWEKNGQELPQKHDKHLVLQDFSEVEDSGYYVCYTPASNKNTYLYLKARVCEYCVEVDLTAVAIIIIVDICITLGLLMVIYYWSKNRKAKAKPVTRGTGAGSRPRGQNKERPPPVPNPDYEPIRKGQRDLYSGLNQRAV
T3 sequence (P11942 23-182 partner): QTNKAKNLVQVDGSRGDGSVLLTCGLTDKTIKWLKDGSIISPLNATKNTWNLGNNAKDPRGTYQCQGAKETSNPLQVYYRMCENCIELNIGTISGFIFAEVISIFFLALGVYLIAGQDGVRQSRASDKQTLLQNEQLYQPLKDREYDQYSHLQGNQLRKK
T3 sequence (P04235 22-173 partner): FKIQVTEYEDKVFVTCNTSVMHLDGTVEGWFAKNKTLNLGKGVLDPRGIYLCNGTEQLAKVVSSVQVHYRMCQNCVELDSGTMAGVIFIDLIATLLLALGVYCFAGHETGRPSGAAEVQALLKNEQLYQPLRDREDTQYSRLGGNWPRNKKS
T3 sequence (P24161 22-164 partner): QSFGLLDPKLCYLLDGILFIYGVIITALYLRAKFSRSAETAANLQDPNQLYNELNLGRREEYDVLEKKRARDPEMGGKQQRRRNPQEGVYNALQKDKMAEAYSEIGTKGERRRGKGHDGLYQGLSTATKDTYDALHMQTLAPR
T2 sequence (P24063 24-1162): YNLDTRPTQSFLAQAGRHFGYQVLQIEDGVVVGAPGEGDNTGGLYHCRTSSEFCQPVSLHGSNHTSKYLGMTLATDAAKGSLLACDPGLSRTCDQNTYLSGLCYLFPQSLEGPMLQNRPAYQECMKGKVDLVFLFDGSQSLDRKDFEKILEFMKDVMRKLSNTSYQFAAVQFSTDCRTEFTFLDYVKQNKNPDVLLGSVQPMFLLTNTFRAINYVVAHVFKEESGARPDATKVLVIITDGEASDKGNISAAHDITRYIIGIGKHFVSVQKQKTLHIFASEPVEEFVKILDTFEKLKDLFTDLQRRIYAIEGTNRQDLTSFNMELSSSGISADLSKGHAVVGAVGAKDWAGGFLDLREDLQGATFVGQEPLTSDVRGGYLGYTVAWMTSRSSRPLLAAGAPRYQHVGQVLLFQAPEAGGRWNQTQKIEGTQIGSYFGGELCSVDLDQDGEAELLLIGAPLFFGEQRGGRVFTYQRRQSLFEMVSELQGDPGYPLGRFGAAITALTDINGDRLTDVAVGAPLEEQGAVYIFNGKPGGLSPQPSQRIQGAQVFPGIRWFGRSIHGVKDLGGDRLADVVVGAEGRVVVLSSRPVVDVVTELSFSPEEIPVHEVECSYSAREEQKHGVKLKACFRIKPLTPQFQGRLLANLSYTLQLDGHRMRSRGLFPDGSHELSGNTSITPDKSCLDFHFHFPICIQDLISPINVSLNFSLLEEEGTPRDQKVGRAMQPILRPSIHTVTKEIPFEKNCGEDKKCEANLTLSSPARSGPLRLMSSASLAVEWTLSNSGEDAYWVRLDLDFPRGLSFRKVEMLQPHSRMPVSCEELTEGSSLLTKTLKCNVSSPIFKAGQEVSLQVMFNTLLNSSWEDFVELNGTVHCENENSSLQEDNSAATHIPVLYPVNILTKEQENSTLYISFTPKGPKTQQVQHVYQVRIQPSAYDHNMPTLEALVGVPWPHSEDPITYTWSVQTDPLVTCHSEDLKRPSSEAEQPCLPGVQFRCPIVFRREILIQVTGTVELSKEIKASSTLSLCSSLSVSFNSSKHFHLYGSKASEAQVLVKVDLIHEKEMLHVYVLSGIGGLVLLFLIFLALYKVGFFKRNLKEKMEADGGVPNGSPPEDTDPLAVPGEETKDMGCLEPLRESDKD
T2 sequence (P11835 24-771 partner): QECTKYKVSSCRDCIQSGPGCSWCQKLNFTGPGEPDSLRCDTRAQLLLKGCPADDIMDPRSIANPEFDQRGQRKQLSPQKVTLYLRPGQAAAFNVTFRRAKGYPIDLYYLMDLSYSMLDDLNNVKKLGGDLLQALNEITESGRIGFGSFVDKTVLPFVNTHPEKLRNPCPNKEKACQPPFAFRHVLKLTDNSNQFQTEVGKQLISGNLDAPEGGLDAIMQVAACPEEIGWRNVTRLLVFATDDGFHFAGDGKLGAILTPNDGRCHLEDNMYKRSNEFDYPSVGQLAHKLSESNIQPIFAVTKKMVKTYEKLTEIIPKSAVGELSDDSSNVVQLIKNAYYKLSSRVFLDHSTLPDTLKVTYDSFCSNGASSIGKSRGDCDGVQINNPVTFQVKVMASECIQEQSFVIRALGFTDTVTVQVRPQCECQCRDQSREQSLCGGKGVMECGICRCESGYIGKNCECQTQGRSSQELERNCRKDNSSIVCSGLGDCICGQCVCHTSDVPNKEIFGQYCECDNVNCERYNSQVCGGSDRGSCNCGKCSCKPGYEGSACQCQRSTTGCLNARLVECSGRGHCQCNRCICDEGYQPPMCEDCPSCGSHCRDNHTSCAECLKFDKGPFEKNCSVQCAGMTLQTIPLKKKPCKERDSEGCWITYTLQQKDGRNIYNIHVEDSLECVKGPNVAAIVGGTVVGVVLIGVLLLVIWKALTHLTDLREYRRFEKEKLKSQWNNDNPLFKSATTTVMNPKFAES

## (−)-epigallocatechin-3-o-gallate [EGCG]
[1]; [8]
  binding of the CD28-specific monoclonal antibody, of the control: about 50%
[1]; EGCg 100 ppm
  percent expression of cell surface molecule CD28: 8.7%
  average percent suppression in epitope detection, CD28: (50.6)** percent
[1]; EGCg 200 ppm
  percent expression of cell surface molecule CD28: 9.4%
  average percent suppression in epitope detection, CD28: (46.6)** percent
[2]
  production of INF-γ: significantly decreased down to near or below the background levels
[3]; EGCg 100 ppm
  percent expression of cell surface molecule CD11a: 90.1%
  average percent suppression in epitope detection, CD11a: (4.1)** percent
[3]; EGCg 200 ppm
  percent expression of cell surface molecule CD11a: 90.0%
  average percent suppression in epitope detection, CD11a: (4.3)** percent
[4]; 100 vs 200 ppm
  dose dependence of reduction in epitope detection, CD3ε: dose-dependent reduction
[4]; EGCg 100 ppm
  percent expression of cell surface molecule CD3ε: 20.2%
  average percent suppression in epitope detection, CD3ε: (37.5)* percent
[4]; EGCg 200 ppm
  percent expression of cell surface molecule CD3ε: 5.6%
  average percent suppression in epitope detection, CD3ε: (82.7)** percent
[4]; summary of TABLE 1
  blocking of CD3ε by EGCG: strongly blocked
[5]; EGCg 100 ppm
  percent expression of cell surface molecule CD2: 85.9%
  average percent suppression in epitope detection, CD2: (9.5)** percent
[5]; EGCg 200 ppm
  percent expression of cell surface molecule CD2: 90.8%
  average percent suppression in epitope detection, CD2: (4.3)** percent
[6]
  % survival at 4 degree C. versus 37 degree C.: greater % survival
[6]; incubated for 24 hours
  survival of the splenocytes: significantly low
[7]; [8]
  binding of TCRαβ with its monoclonal antibody: hardly to moderately decreased
[7]; EGCg 100 ppm
  percent expression of cell surface molecule TCRαβ: 29.9%
  average percent suppression in epitope detection, TCRαβ: (3.5)^n.s. percent
[7]; EGCg 200 ppm
  percent expression of cell surface molecule TCRαβ: 29.7%
  average percent suppression in epitope detection, TCRαβ: (4.2)^n.s. percent
